Patent publication US20200399222A1, “PICOLINAMIDES AS FUNGICIDES” (Dow AgroSciences LLC, priority 2018, published 2020)
Read-outs that look alike come from different tables or passages of the source.

Experiments:
Type in all cases: in vivo
Puccinia triticina = experiment: Wheat brown rust (PUCCRT) disease control on wheat seedlings; details: for pest or weed control at 121.5 g/ha: Low volume application; for pest or weed control at 100 ppm: High volume application
Method in brief: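 Yuma wheat seedlings (first leaf emerged) sprayed to run-off with compound in acetone plus nine volumes water containing 110 ppm Triton X-100, or track-sprayed as EC formulations with 0.1% Trycol 5941. Rust spores inoculated before or after treatment; overnight dark dew, 22 °C, 100% RH, then greenhouse at 24 °C.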

Zymoseptoria tritici = experiment: Leaf blotch of wheat (SEPTTR) disease control on wheat seedlings; details: for pest or weed control at 121.5 g/ha: Low volume application; for pest or weed control at 100 ppm: High volume application
Rhyncosporium secalis = experiment: Barley scald (RHYNSE) disease control on barley seedlings; details: 1DP test at 100 ppm
Procedure: Technical grades of materials were dissolved in acetone, which were then mixed with nine volumes of water containing 110 ppm Triton X-100. The fungicide solutions were applied onto wheat seedlings using an automated booth sprayer to run-off. All sprayed plants were allowed to air dry prior to further handling. All fungicides were evaluated using the aforementioned method for their activity vs. all target diseases, unless stated otherwise. Wheat leaf blotch and brown rust activity were also evaluated using track spray applications, in which case the fungicides were formulated as EC formulations, containing 0.1% Trycol 5941 in the spray solutions. Example J: Evaluation of Fungicidal Activity: Barley Scald (Rhyncosporium secalis; Bayer Code […]) Barley seedlings (variety Harrington) were propagated in soil-less Metro mix, with each pot having 8 to 12 plants, and used in the test when first leaf was fully emerged. Test plants were inoculated by an aqueous spore suspension of Rhyncosporium secalis 24 hr after fungicide treatments. After inoculation the plants were kept in a dew room at 20° C. with 100% relative humidity for 48 hr. The plants were then transferred to a greenhouse set at 20° C. for disease to develop. Fungicide formulation, application and disease assessment on the sprayed leaves followed the procedures as described in the Example A.

Phakopsora pachyrhizi = experiment: Asian soybean rust (PHAKPA) disease control on soybean seedlings; details: Phakopsora pachyrhizi, High volume application at 25 ppm
Method in brief: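 Compounds in acetone diluted with nine volumes of water containing 0.011% Tween 20, sprayed to run-off on two-week-old Williams 82 soybean seedlings; inoculation 3 days before or 1 day after treatment. Plants held 24 h in dark dew room at 22° C, 100% RH, then at 23° C; disease severity scored on sprayed leaves.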

[1] = system: Pseudoperonospora cubensis; experiment: Cucumber downy mildew (PSPECU) disease control on cucumber seedlings; details: 1DP test at 100 ppm
Procedure: Technical grades of materials were dissolved in acetone, which were then mixed with nine volumes of water containing 110 ppm Triton X-100. The fungicide solutions were applied onto wheat seedlings using an automated booth sprayer to run-off. All sprayed plants were allowed to air dry prior to further handling. All fungicides were evaluated using the aforementioned method for their activity vs. all target diseases, unless stated otherwise. Wheat leaf blotch and brown rust activity were also evaluated using track spray applications, in which case the fungicides were formulated as EC formulations, containing 0.1% Trycol 5941 in the spray solutions. Example H: Evaluation of Fungicidal Activity: Cucumber Downy Mildew (Pseudoperonospora cubensis; Bayer Code […]) Cucumber seedlings (variety Bush Pickle) were grown in soil-less Metro mix, with one plant per pot, and used in the test when 12 to 14 days old. Plants were inoculated with a spore suspension 24 hr following fungicide treatments. […] After inoculation the plants were kept in a dew room at 22° C. with 100% relative humidity for 24 hr to permit spores to germinate and infect the leaf. The plants were then transferred to a greenhouse set at 20° C. until disease was fully expressed. […]

Alternaria solani = experiment: Tomato early blight (ALTESO) disease control on tomato plants; details: 1DP test at 100 ppm
Procedure: Technical grades of materials were dissolved in acetone, which were then mixed with nine volumes of water containing 110 ppm Triton X-100. The fungicide solutions were applied onto wheat seedlings using an automated booth sprayer to run-off. All sprayed plants were allowed to air dry prior to further handling. All fungicides were evaluated using the aforementioned method for their activity vs. all target diseases, unless stated otherwise. Wheat leaf blotch and brown rust activity were also evaluated using track spray applications, in which case the fungicides were formulated as EC formulations, containing 0.1% Trycol 5941 in the spray solutions. Example D: Evaluation of Fungicidal Activity: Tomato Early Blight (Alternaria solani; Bayer Code […]) Tomato plants (variety Outdoor Girl) were propagated in soil-less Metro mix, with each pot having one plant, and used when 12 to 14 days old. Test plants were inoculated with an aqueous spore suspension of Alternaria solani 24 hr after fungicide treatments. After inoculation the plants were kept in 100% relative humidity (one day in a dark dew chamber followed by two to three days in a lighted dew chamber at 20° C.) to permit spores to germinate and infect the leaf. The plants were then transferred to a growth room at 22° C. for disease to develop. […]

Uncinula necator = experiment: Grape powdery mildew (UNCINE) disease control on grape seedlings; details: 1DP test at 100 ppm
Procedure: Technical grades of materials were dissolved in acetone, which were then mixed with nine volumes of water containing 110 ppm Triton X-100. The fungicide solutions were applied onto wheat seedlings using an automated booth sprayer to run-off. All sprayed plants were allowed to air dry prior to further handling. All fungicides were evaluated using the aforementioned method for their activity vs. all target diseases, unless stated otherwise. Wheat leaf blotch and brown rust activity were also evaluated using track spray applications, in which case the fungicides were formulated as EC formulations, containing 0.1% Trycol 5941 in the spray solutions. Example K: Evaluation of Fungicidal Activity: Grape Powdery Mildew (Uncinula necator; Bayer Code […]) Grape seedlings (variety Carignane) were grown in soil-less Metro mix, with one plant per pot, and used in the test when approximately 1 month old. Plants were inoculated 24 hr after fungicide treatment by shaking spores from infected leaves over test plants. Plants were maintained in a greenhouse set at 20° C. until disease was fully developed. Fungicide formulation, application and disease assessment on sprayed leaves followed the procedures as described in the Example A.

[2] = 24 h, 1 Day Protectant, read-out: PUCCRT disease control rating, 1DP
[3] = 72 h, 3 Day Curative, read-out: PUCCRT disease control rating, 3DC
[4] = 24 h, 1 Day Protectant, read-out: SEPTTR disease control rating, 1DP
[5] = 72 h, 3 Day Curative, read-out: SEPTTR disease control rating, 3DC
[6] = 24 h, 1 day protectant, read-out: PHAKPA 1DP (1 Day Protectant) disease control
[7] = 72 h, 3 day curative, read-out: PHAKPA 3DC (3 Day Curative) disease control

| Structure (SMILES) | pest or weed control at 121.5 g/ha (Puccinia triticina; [2]) [%] | pest or weed control at 121.5 g/ha (Puccinia triticina; [3]) [%] | pest or weed control at 121.5 g/ha (Zymoseptoria tritici; [4]) [%] | pest or weed control at 121.5 g/ha (Zymoseptoria tritici; [5]) [%] | RHYNSE disease control rating (Rhyncosporium secalis) | pest or weed control at 25 ppm (Phakopsora pachyrhizi; [6]) [%] | pest or weed control at 25 ppm (Phakopsora pachyrhizi; [7]) [%] | PSPECU disease control rating [1] | ALTESO disease control rating (Alternaria solani) | UNCINE disease control rating (Uncinula necator) | pest or weed control at 100 ppm (Puccinia triticina; [2]) [%] | pest or weed control at 100 ppm (Puccinia triticina; [3]) [%] | pest or weed control at 100 ppm (Zymoseptoria tritici; [4]) [%] | pest or weed control at 100 ppm (Zymoseptoria tritici; [5]) [%] |
| --- | --- | --- | --- | --- | --- | --- | --- | --- | --- | --- | --- | --- | --- | --- |
| COc1ccnc(C(=O)N[C@@H](C)C(=O)O[C@H](C)[C@H](C)c2ccccc2C)c1OC(C)=O [Example 263] | < 80 | < 80 | < 80 | < 80 | B (≤80) | > 80 | < 80 | – | – | – | – | – | – | – |
| COc1ccnc(C(=O)N[C@@H](C)C(=O)O[C@@H](C)[C@@H](C)c2ccccc2C)c1OC(C)=O [Example 264] | > 80 | > 80 | < 80 | < 80 | – | > 80 | > 80 | B (≤80) | B (≤80) | A (>80) | – | – | – | – |
| COc1ccnc(C(=O)N[C@@H](C)C(=O)O[C@H](C)[C@H](C)c2ccccc2C)c1OC(=O)C(C)C [Example 265] | < 80 | < 80 | < 80 | < 80 | – | > 80 | > 80 | – | – | – | – | – | – | – |
| COc1ccnc(C(=O)N[C@@H](C)C(=O)O[C@@H](C)[C@@H](C)c2ccccc2C)c1OC(=O)C(C)C [Example 266] | < 80 | < 80 | < 80 | < 80 | – | > 80 | > 80 | – | – | – | – | – | – | – |
| COc1ccnc(C(=S)N[C@@H](C)C(=O)O[C@@H](C)[C@@H](C)c2ccccc2C(F)(F)F)c1OC(C)=O [Example 270] | < 80 | < 80 | < 80 | < 80 | – | > 80 | < 80 | – | – | – | – | – | – | – |
| COc1ccnc(C(=S)N[C@@H](C)C(=O)O[C@@H](C)[C@@H](C)c2ccc(F)cc2C(F)(F)F)c1OC(C)=O [Example 271] | < 80 | < 80 | < 80 | < 80 | – | > 80 | > 80 | – | – | – | – | – | – | – |
| COc1ccnc(C(=S)N[C@@H](C)C(=O)O[C@@H](C)[C@@H](C)C2CCCC2)c1OC(C)=O [Example 272] | < 80 | < 80 | < 80 | < 80 | – | > 80 | < 80 | – | – | – | – | – | – | – |
| COc1cc[n+]([O-])c(C(=O)N[C@@H](C)C(=O)O[C@@H](C)[C@@H](C)c2ccccc2C(F)(F)F)c1O [Example 273] | < 80 | < 80 | < 80 | < 80 | – | < 80 | < 80 | – | – | – | – | – | – | – |
| COc1cc[n+]([O-])c(C(=O)N[C@@H](C)C(=O)O[C@@H](C)[C@@H](C)c2ccc(F)cc2C(F)(F)F)c1O [Example 274] | < 80 | < 80 | < 80 | < 80 | – | < 80 | < 80 | – | – | – | – | – | – | – |
| COc1cc[n+]([O-])c(C(=O)N[C@@H](C)C(=O)O[C@@H](C)[C@@H](C)C2CCCC2)c1O [Example 275] | < 80 | < 0 | < 0 | < 0 | – | < 80 | < 80 | – | – | – | – | – | – | – |
| COc1cc[n+]([O-])c(C(=O)N[C@@H](C)C(=O)O[C@@H](C)[C@@H](C)c2ccccc2)c1O [Example 276] | < 80 | < 80 | < 80 | < 80 | – | < 0 | < 80 | – | – | – | > 80 | < 80 | < 80 | < 80 |
| COc1cc(F)ccc1[C@@H](C)[C@@H](C)OC(=O)[C@H](C)NC(=O)c1c(O)c(OC)cc[n+]1[O-] [Example 277] | < 0 | < 80 | < 80 | < 80 | – | < 80 | < 80 | – | – | – | < 80 | < 0 | < 80 | < 80 |
